These compounds were tested against T1, human ADRA2C receptor (Homo sapiens (Human), UniProt P18825) (assay: In vitro radioligand binding study, competition assay with [3H] rauwolscine (Eurofins Panlabs)). Conditions: calculated from IC50 and Kd with the Cheng Prusoff equation; [3H] rauwolscine competition; read-out: hARα2C Ki.
Procedure: B-1 In Vitro Radioligand Binding Studies for Determination of the Dissociation Constants Ki at the Human Adrenoreceptor ADRA2C (Eurojins Panlabs Discovery Services, Taiwan, Ltd)
A competition assay based on [^3H] rauwolscine as radioliganden was used to determine the binding affinity of the test substances at the human ADRA2C receptor.
To configure the competition assay, the equilibrium dissociation constant Kd of the radioligand [^3H] rauwolscine was determined in a saturation experiment. To this end, homogenates of CHO-K1 cells recombinantly expressing the human ADRA2C receptor were incubated with increasing concentrations of the radiotracers for 1 h at 4° C. in binding buffer (50 mM Tris-HCl, 1 mM EDTA, pH 7.4). Unspecific binding was determined by addition of an excess of the not radioactively labelled ligand prazosin (10 μM). The radioactivity was determined in a scintiation counter.
The competition experiments were carried out in the presence of 0.5 nM [^3H] rauwolscine and increasing concentrations of the test substances to be characterized under the conditions described above.
From the IC50 value measured in the competition experiment and the Kd value from the saturation experiment, the equilibrium constant Ki of the inhibitor, which describes the affinity of the test substances to the receptor, was calculated using the Cheng Prusoff equation [Cheng Y, Prusoff W H. Relationship between the inhibition constant (Ki) and the concentration of inhibitor which causes 50 percent inhibition (ISO) of an enzymatic reaction. […] PMID 4202581 PMID: 4202581].

T1 sequence (P18825 whole entry): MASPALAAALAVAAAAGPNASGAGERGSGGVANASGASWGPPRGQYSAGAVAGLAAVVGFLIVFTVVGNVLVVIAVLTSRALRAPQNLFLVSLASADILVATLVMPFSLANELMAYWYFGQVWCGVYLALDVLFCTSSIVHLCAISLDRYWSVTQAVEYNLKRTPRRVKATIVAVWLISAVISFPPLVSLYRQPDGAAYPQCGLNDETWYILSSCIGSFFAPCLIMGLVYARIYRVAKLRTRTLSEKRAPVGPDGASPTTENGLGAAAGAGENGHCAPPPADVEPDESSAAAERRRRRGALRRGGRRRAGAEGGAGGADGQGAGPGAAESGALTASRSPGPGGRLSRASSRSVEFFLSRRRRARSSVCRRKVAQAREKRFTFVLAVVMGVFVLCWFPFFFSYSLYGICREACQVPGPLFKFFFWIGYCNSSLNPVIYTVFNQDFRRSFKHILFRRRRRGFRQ

Ki [nM] | SMILES
2.3 | CCOC1CCCN(C2CCN(c3ncc(C(=O)NCc4ncc(F)cc4F)s3)CC2)C1 (single isomer, unassigned) [Example 124, ent-N-[(3,5-Difluoropyridin-2-yl)methyl]-2-(3-ethoxy[1,4′-bipiperidin]-1′-yl)-1,3-thiazole-5-carboxamide]
24 | C[C@@H]1CCCN(C2CCN(c3ncc(C(=O)NCc4ncc(F)cc4F)s3)CC2)C1 [Example 1, N-[(3,5-Difluoropyridin-2-yl)methyl]-2-[(3R)-3-methyl[1,4′-bipiperidin]-1′-yl]-1,3-thiazole-5-carboxamide]
56 | O=C(NCc1ncc(F)cc1F)c1cnc(N2CCC(N3CCC[C@@H](CF)C3)CC2)s1 [Example 41, N-[(3,5-Difluoropyridin-2-yl)methyl]-2-[(3R)-3-(fluoromethyl)[1,4′-bipiperidin]-1′-yl]-1,3-thiazole-5-carboxamide]
2.8 | O=C(NCc1ncc(F)cc1F)c1cnc(N2CCC(N3CCCC4(CC4)C3)CC2)s1 [Example 64, 2-[4-(5-Azaspiro[2.5]octan-5-yl)piperidin-1-yl]-N-[(3,5-difluoropyridin-2-yl)methyl]-1,3-thiazole-5-carboxamide]

Same assay, conditions: displacement of 0.5 nM [3H] rauwolscine; homogenates of CHO-K1 cells expressing human ADRA2C; 1 h, 4° C.; read-out: hARα2C IC50

IC50 [nM] | SMILES
5.1 | CCOC1CCCN(C2CCN(c3ncc(C(=O)NCc4ncc(F)cc4F)s3)CC2)C1 (single isomer, unassigned) [Example 124, ent-N-[(3,5-Difluoropyridin-2-yl)methyl]-2-(3-ethoxy[1,4′-bipiperidin]-1′-yl)-1,3-thiazole-5-carboxamide]
54 | C[C@@H]1CCCN(C2CCN(c3ncc(C(=O)NCc4ncc(F)cc4F)s3)CC2)C1 [Example 1, N-[(3,5-Difluoropyridin-2-yl)methyl]-2-[(3R)-3-methyl[1,4′-bipiperidin]-1′-yl]-1,3-thiazole-5-carboxamide]
130 | O=C(NCc1ncc(F)cc1F)c1cnc(N2CCC(N3CCC[C@@H](CF)C3)CC2)s1 [Example 41, N-[(3,5-Difluoropyridin-2-yl)methyl]-2-[(3R)-3-(fluoromethyl)[1,4′-bipiperidin]-1′-yl]-1,3-thiazole-5-carboxamide]
6.2 | O=C(NCc1ncc(F)cc1F)c1cnc(N2CCC(N3CCCC4(CC4)C3)CC2)s1 [Example 64, 2-[4-(5-Azaspiro[2.5]octan-5-yl)piperidin-1-yl]-N-[(3,5-difluoropyridin-2-yl)methyl]-1,3-thiazole-5-carboxamide]

The compounds below were run against T1, human ADRA2C receptor (assay: In vitro activity assay, inhibition of recombinant ADRA2C (CHO-K1 cells coexpressing Gαq and aequorin, noradrenaline-induced bioluminescence)). Conditions: inhibition of agonist (noradrenaline)-induced bioluminescence signal; some values are means of multiple determinations; read-out: ARα2C IC50.
Format: cell-based
Procedure: B-2. In Vitro Activity Assay to Determine the Inhibition of Recombinant ADRA2C
The human ADRA2C receptor belongs to the G protein (guanine-dependent protein)-coupled receptors, the main function of which is the transduction of signals into the interior of the cell.
The investigations of the inhibition of the recombinant human ADRA2C receptors were carried out with stably transfected CHO-K1 cells coexpressing the Gαq protein and the calcium-sensitive photoprotein aequorin. In this recombinant system, binding of the agonists noradrenaline to the ADRA2C receptor leads, after activation of a signal cascade, to calcium release from intracellular stores, which is detected by the intracellular calcium sensor aequorin as a bioluminescent signal. The method is described in detail in the reference below. [Wunder F., Kalthof B., Muller T., Hueser J. Functional Cell-Based Assays in Microliter Volumes for Ultra-High Throughput Screening. Combinatorial Chemistry & High Throughput Screening, Volume 11, Number 7, 2008, pp. 495-504(10). doi.org/10.2174/138620708785204054]
The activity of the test substances was determined via their ability to inhibit the agonist-induced increase of the bioluminescence signal. The concentration which can block half of this signal increase is referred to as IC50. The IC50 value is calculated using the 4 parameter logistic function (Hill function):
Top=upper threshold, Bottom=lower threshold, Slope=slope, IC50=turning point

SMILES | IC50 [nM]
C[C@@H]1CCCN(C2CCN(c3ncc(C(=O)NCc4cc(Cl)ccc4F)s3)CC2F)C1 (mixture of isomers) [Example 113, diamix-N-(5-Chloro-2-fluorobenzyl)-2-[(3R)-3′-fluoro-3-methyl[1,4′-bipiperidin]-1′-yl]-1,3-thiazole-5-carboxamide] | 0.61
O=C(NCc1ncc(F)cc1F)c1cnc(N2CCCC(N3CCCC4(CC4)C3)CC2)s1 (racemic) [Example 153, rac-2-[4-(5-Azaspiro[2.5]octan-5-yl)azepan-1-yl]-N-[(3,5-difluoropyridin-2-yl)methyl]-1,3-thiazole-5-carboxamide] | 23
C[C@@H]1CCCN(C2CCN(c3ncc(C(=O)NC[C@H](C)c4ccccc4)s3)CC2)C1 (relative stereo) [Example 83, rel-2-[(3R)-3-methyl[1,4′-bipiperidin]-1′-yl]-N-[(2R)-2-phenylpropyl]-1,3-thiazole-5-carboxamide] | 98.1
Cc1ccc([C@@H](C)NC(=O)c2cnc(N3CCC(N4CCC[C@@H](C)C4)CC3)s2)cc1 (relative stereo) [Example 95, rel-2-[(3R)-3-methyl[1,4′-bipiperidin]-1′-yl]-N-[(1R)-1-(4-methylphenyl)ethyl]-1,3-thiazole-5-carboxamide] | 800
CC(NC(=O)c1cnc(N2CCC(N3CCC[C@@H](C)C3)CC2)s1)c1cc(F)ccc1F (single isomer, unassigned) [Example 46] | 8.3
C[C@@H]1CCCN(C2CCN(c3nc(C(=O)NCc4ncc(F)cc4F)cs3)CC2F)C1 (single isomer, unassigned) [Example 157] | 2.7
C[C@@H]1CCCN(C2CCN(c3nc(C(=O)NCc4ncc(F)cc4F)cs3)CC2F)C1 (single isomer, unassigned) [Example 158] | 98
C[C@@H]1CCCN(C2CCN(c3nc(C(=O)NCc4ncc(F)cc4F)co3)CC2F)C1 (single isomer, unassigned) [Example 159] | 25
C[C@@H]1CCCN(C2CCN(c3nc(C(=O)NCc4ncc(F)cc4F)co3)CC2F)C1 (single isomer, unassigned) [Example 160] | 435
CC1CC(N2CCC[C@@H](C)C2)CCN1c1ncc(C(=O)NCc2ncc(F)cc2F)s1 (single isomer, unassigned) [Example 161] | 233
CCC1CN(c2ncc(C(=O)NCc3ncc(F)cc3F)s2)CCC1N1CCC[C@@H](C)C1 (single isomer, unassigned) [Example 162] | 810
CCC1CN(c2ncc(C(=O)NCc3ncc(F)cc3F)s2)CCC1N1CCC[C@@H](C)C1 (single isomer, unassigned) [Example 163] | 480
CC1CN(c2ncc(C(=O)NCc3ncc(F)cc3F)s2)CCC1N1CCC[C@@H](C)C1 (single isomer, unassigned) [Example 164] | 24
CC1CN(c2ncc(C(=O)NCc3ncc(F)cc3F)s2)CCC1N1CCC[C@@H](C)C1 (single isomer, unassigned) [Example 165] | 410
C[C@@H]1CCCN(C2CCN(c3ncc(C(=O)NCc4cccc(C(F)(F)F)n4)s3)CC2)C1 [Example 32] | 640
CC(NC(=O)c1cnc(N2CCC(N3CCC[C@@H](C)C3)CC2)s1)c1cc(F)ccc1F (stereo partly drawn) [Example 47, N-[1-(2,5-Difluorophenyl)ethyl]-2-[(3R)-3-methyl[1,4′-bipiperidin]-1′-yl]-1,3-thiazole carboxamide] | 25
C[C@@H]1CCCN(C2CCN(c3ncc(C(=O)Nc4ccc(F)cc4Cl)s3)CC2)C1 [Example 88, N-(2-chloro-4-fluorophenyl)-2-[(3R)-3-methyl[1,4′-bipiperidin]-1′-yl]-1,3-thiazole-5-carboxamide] | 489
C[C@@H]1CCCN(C2CCN(c3ncc(C(=O)N(C)Cc4cccnc4)s3)CC2)C1 [Example 90, N-methyl-2-[(3R)-3-methyl[1,4′-bipiperidin]-1′-yl]-N-(pyridin-3-ylmethyl)-1,3-thiazole-5-carboxamide] | 971
C[C@@H]1CCCN(C2CCN(c3nnc(C(=O)NCc4ncc(F)cc4F)s3)CC2)C1 [Example 152, N-[(3,5-difluoropyridin-2-yl)methyl]-5-[(3R)-3-methyl[1,4′-bipiperidin]-1′-yl]-1,3,4-thiadiazole-2-carboxamide] | 660
O=C(NCc1ncc(F)cc1F)c1cnc(N2CCCC(N3CCCC4(C3)CC4(F)F)CC2)s1 (stereo not drawn) [Example 156, diamix-2-[4-(1,1-Difluoro-5-azaspiro[2.5]octan-5-yl)azepan-1-yl]-N-[(3,5-difluoropyridin-2-yl)-methyl]-1,3-thiazole-5-carboxamide] | 36

More lines, now with the values ahead:

IC50 [nM] | SMILES
19 | O=C(NCc1ncc(F)cc1F)c1cnc(N2CCC(N3CCCC(C4CC4)C3)CC2)s1 (racemic) [Example 137, 2-(3-cyclopropyl[1,4′-bipiperidin]-1′-yl)-N-[(3,5-difluoropyridin-2-yl)methyl]-1,3-thiazole-5-carboxamide]
6.5 | O=C(NCc1ncc(F)cc1F)c1cnc(N2CCC(N3CCCC(C4CCC4)C3)CC2)s1 (racemic) [Example 138, 2-(3-cyclobutyl[1,4′-bipiperidin]-1′-yl)-N-[(3,5-difluoropyridin-2-yl)methyl]-1,3-thiazole-5-carboxamide]
1.3 | COCCC1CCCN(C2CCN(c3ncc(C(=O)NCc4ncc(F)cc4F)s3)CC2)C1 (racemic) [Example 148, N-[(3,5-difluoropyridin-2-yl)methyl]-2-[3-(2-methoxyethyl)[1,4′-bipiperidin]-1′-yl]-1,3-thiazole-5-carboxamide]
35 | CC(C)(C)C1CCCN(C2CCN(c3ncc(C(=O)NCc4ncc(F)cc4F)s3)CC2)C1 (racemic) [Example 149, 2-(3-tert-butyl[1,4′-bipiperidin]-1′-yl)-N-[(3,5-difluoropyridin-2-yl)methyl]-1,3-thiazole-5-carboxamide]
261 | O=C(NCc1ncc(F)cc1F)c1cnc(N2CCC(N3CCC[C@@H](C(F)(F)F)C3)CC2)s1 [Example 43, N-[(3,5-Difluoropyridin-2-yl)methyl]-2-[(3R)-3-(trifluoromethyl)[1,4′-bipiperidin]-1′-yl]-1,3-thiazole-5-carboxamide]

Reference: US12540134B2, “Inhibitors of adrenoreceptor ADRAC2” (Bayer Aktiengesellschaft, priority 2019, dated 2026)
